{"source": "patent US9981037B2", "about": "“Combination therapy of beta-glycolipids and antibodies for the treatment of immune-related disorders” (HADASIT MEDICAL RESEARCH SERVICES AND DEVELOPMENT LTD., priority 2008, dated 2018)", "tested_on": "IgG and IgM repertoire", "test": "Antigen microarrays of serum IgG and IgM reactivities", "format": "in vivo, human", "excerpt": "A panel of self and non-self proteins, peptides and lipids were spotted onto Epoxi slides (TeleChem, CA, USA) as described [Quintana, F. J. et al. Proc. Natl. Acad. Sci. USA 101 Suppl 2:14615-14621 (2004)]. Since several of the self-antigens included in the antigen microarrays used by the invention, are targeted by natural antibodies [Coutinho, A. et al. Curr. Opin. Immunol. 7:812-818 (1995); Quintana, F. J. and Cohen, I. R. Biomed Pharmacother 58:276-281 (2004)], the inventors could detect both the up and the down-regulation of preexisting IgG and IgM reactivities. Sera from OKT3-treated subjects were assayed at a 1/10 dilution and the IgG or IgM reactivities displaying significant changes upon treatment were identified. Briefly, antigens were spotted in replicates of 6, the microarrays were blocked for 1 h at 37° C. with 1% bovine serum albumin, and incubated for 2 hr at 37° C. with a 1:200 dilution of the test serum in blocking buffer. The arrays were then washed and incubated for 45 minutes at 37° C. with a 1:500 dilution of detection antibodies: a goat […] Cy3-conjugated antibody or a goat anti-mouse IgM Cy5-conjugated antibody (Jackson ImmunoResearch, West Grove, Pa.). The arrays were scanned with a ScanArray 4000× scanner (GSI Luminomics, Billerica, Mass., USA) and the IgM and IgG results were recorded separately.\nRaw data were normalized and analyzed using the GeneSpring software (Silicon Genetics, Redwood City, Calif.). Antigen reactivity was defined by the mean intensity of binding to the replicates of that antigen on the microarray. The data were analyzed with the Wilcoxon rank-sum test, a non-parametric test robust to outliers, using the Benjamini and Hochberg false discovery method with a p-value of 0.2 to determine significance [Stekel, D. Microarray Bioinformatics. Cambridge University Press, Cambridge (2003)]. To perform the hierarchical clustering of the antibody reactivities a pair wise average linkage algorithm based on Pearson's correlation was used as a distance measure [Stekel (2003) ibid.]\nAntigen microarrays constitute a new tool for studying the immune system in health [Quintana, F. J. and Cohen, I. R. Biomed Pharmacother 58:276-281 (2004); Merbl, Y. et al. Clin. Invest. 117:712-718 (2007); Quintana, F. J. et al. J. Autoimmun. 21:65-75 (2003)] and disease [Goldschmidt, Y. et al. Technical Report MCS03-071-018 (2003); Hueber, W. et al. Arthritis Rheum. 52:2645-2655 (2005)]. The inventors therefore used an antigen microarray containing a broad panel of antigens that included self and non self proteins, heat shock proteins, and infectious agents to investigate the effects of oral OKT3 on the immune repertoire. Both increases and decreases of immunoglobulin reactivities were measured.\nNo changes occurred in the IgM repertoire."}
{"substance": "OKT3: murine monoclonal anti-CD3 antibody (Orthoclone OKT-3, Ortho Biotech)", "values": [{"measurement": "IgG reactivities affected", "setting": "0.2 mg dose", "result": 4}, {"measurement": "IgG reactivities affected", "setting": "1.0 mg dose", "result": 37}, {"measurement": "downregulated IgG reactivities", "setting": "1.0 mg dose", "result": 19}, {"measurement": "up regulated IgG reactivities", "setting": "1.0 mg dose", "result": 18}, {"measurement": "downregulated IgG reactivities", "setting": "5 mg dose", "result": 18}, {"measurement": "up-regulated IgG reactivities", "setting": "5 mg dose", "result": 47}, {"measurement": "IgG reactivities affected", "setting": "5.0 mg dose", "result": 65}, {"measurement": "changes in the IgM repertoire", "setting": "oral OKT3", "result": "No changes"}]}
